Laboratory results: patent publication US20220363686A1 (AiCuris GmbH & Co. KG, priority 2018, published 2022)

What was measured:
[1] = molecular target: HBV core protein (C-terminal truncated core protein containing 149 amino acids of the N-terminal assembly domain) (UniProt P03146); assay: Biochemical capsid assembly assay (fluorescence quenching); design: rows headed: Assembly Activity; other: BODIPY-FL labelled core protein, assembly started with NaCl, read after 6 min; conditions: read-out: Assembly Activity; BODIPY-FL labelled core protein, assembly started with NaCl, read after 6 min
Procedure: The screening for assembly effector activity was done based on a fluorescence quenching assay published by Zotnick et al. (2007). The C-terminal truncated core protein containing 149 amino acids of the N-terminal assembly domain fused to a unique cysteine residue at position 150 and was expressed in E. coli using the pET expression system (Merck Chemicals, Darmstadt). Purification of core dimer protein was performed using a sequence of size exclusion chromatography steps. In brief, the cell pellet from 1 L BL21 (DE3) Rosetta2 culture expressing the coding sequence of core protein cloned NdeI/XhoI into expression plasmid pET21b was treated for 1 h on ice with a native lysis buffer (Qproteome Bacterial Protein Prep Kit; Qiagen, Hilden). After a centrifugation step the supernatant was precipitated during 2 h stirring on ice with 0.23 g/ml of solid ammonium sulfate. Following further centrifugation the resulting pellet was resolved in buffer A (100 mM Tris, pH 7.5; 100 mM NaCl; 2 mM DTT) and was subsequently loaded onto a buffer A equilibrated CaptoCore 700 column (GE HealthCare, Frankfurt). The column flow through containing the assembled HBV capsid was dialyzed against buffer N (50 mM NaHCO3 pH 9.6; 5 mM DTT) before urea was added to a final concentration of 3M to dissociate the capsid into core dimers for 1.5 h on ice. The protein solution was then loaded onto a IL Sephacryl S300 column. After elution with buffer N core dimer containing fractions were identified by SDS-PAGE and subsequently pooled and dialyzed against 50 mM HEPES pH 7.5; 5 mM DTT. To improve the assembly capacity of the purified core dimers a second round of assembly and disassembly starting with the addition of 5 M NaCl and including the size exclusion chromatography steps described above was performed. From the last chromatography step core dimer containing fractions were pooled and stored in aliquots at concentrations between 1.5 to 2.0 mg/ml at −80° C.
Immediately before labelling the core protein was reduced by adding freshly prepared DTT in a final concentration of 20 mM. After 40 min incubation on ice storage buffer and DTT was removed using a Sephadex G-25 column (GE HealthCare, Frankfurt) and 50 mM HEPES, pH 7.5. For labelling 1.6 mg/ml core protein was incubated at 4° C. and darkness overnight with BODIPY-FL maleimide (Invitrogen, Karlsruhe) in a final concentration of 1 mM. After labelling the free dye was removed by an additional desalting step using a Sephadex G-25 column. Labelled core dimers were stored in aliquots at 4° C. In the dimeric state the fluorescence signal of the labelled core protein is high and is quenched during the assembly of the core dimers to high molecular capsid structures. The screening assay was performed in black 384 well microtiter plates in a total assay volume of 10 μl using 50 mM HEPES pH 7.5 and 1.0 to 2.0 μM labelled core protein. Each screening compound was added in 8 different concentrations using a 0.5 log-unit serial dilution starting at a final concentration of 100 μM, 31.6 μM or 10 μM, In any case the DMSO concentration over the entire microtiter plate was 0.5%. The assembly reaction was started by the injection of NaCl to a final concentration of […] which induces the assembly process to approximately 25% of the maximal quenched signal. 6 min after starting the reaction the fluorescence signal was measured using a Clariostar plate reader (BMG Labtech, Ortenberg) with an excitation of 477 nm and an emission of 525 nm. As 100% and 0% assembly control HEPES buffer containing 2.5 M and 0 M NaCl was used. Experiments were performed thrice in triplicates. EC50 values were calculated by non-linear regression analysis using the Graph Pad Prism 6 software (GraphPad Software, La Jolla, USA).

HBV = assay: Determination of HBV DNA from the supernatants of HepAD38 cells (anti-HBV activity); format: cell-based, hepatitis B virus; conditions: Hepatitis B virus, HePAD38, 144 h, HBV DNA in HepAD38 supernatant, day 6, qPCR; read-out: Cell Activity
Procedure: The anti-HBV activity was analysed in the stable transfected cell line HepAD38, which has been described to secrete high levels of HBV virion particles (Ladner et al., 1997). In brief, HepAD38 cells were cultured at 37° C. at 5% CO2 and 95% humidity in 200 μl maintenance medium, which was Dulbecco's modified Eagle's medium/Nutrient Mixture F-12 (Gibco, Karlsruhe), 10% fetal bovine serum (PAN Biotech Aidenbach) supplemented with 50 μg/ml penicillin/streptomycin (Gibco, Karlsruhe), 2 mM L-glutamine (PAN Biotech, Aidenbach), 400 μg/ml G418 (AppliChem, Darmstadt) and 0.3 μg/ml tetracycline. Cells were subcultured once a week in a 1:5 ratio, but were usually not passaged more than ten times. For the assay 60,000 cells were seeded in maintenance medium without any tetracycline into each well of a 96-well plate and treated with serial half-log dilutions of test compound. To minimize edge effects the outer 36 wells of the plate were not used but were filled with assay medium. On each assay plate six wells for the virus control (untreated HepAD38 cells) and six wells for the cell control (HepAD38 cells treated with 0.3 μg/ml tetracycline) were allocated, respectively. In addition, one plate set with reference inhibitors like BAY 41-4109, entecavir, and lamivudine instead of screening compounds were prepared in each experiment. In general, experiments were performed thrice in triplicates. At day 6 HBV DNA from 100 μl filtrated cell culture supernatant (AcroPrep Advance 96 Filter Plate, […] Supor membran, PALL GmbH, Dreieich) was automatically purified on the MagNa Pure LC instrument using the MagNA Pure 96 DNA and Viral NA Small Volume Kit (Roche Diagnostics, Mannheim) according to the instructions of the manufacturer. EC50 values were calculated from relative copy numbers of HBV DNA In brief, 5 μl of the 100 μl eluate containing HBV DNA were subjected to PCR LC480 Probes Master Kit (Roche) together with 1 μM antisense primer […], 0.5 μM sense primer […], 0.3 μM hybprobes […]-FL and LC640-[…]-PH (TIBMolBiol, Berlin) to a final volume of 12.5 μl. The PCR was performed on the Light Cycler 480 real time system (Roche Diagnostics, Mannheim) using the following protocol: Pre-incubation for 1 min at 95° C., amplification: 40 cycles×(10 sec at 95° C., 50 sec at 60° C., 1 sec at 70° C.), cooling for 10 sec at 40° C. Viral load was quantitated against known standards using HBV plasmid DNA of pCH-9/3091 (Nassal et al., 1990, Cell 63: 1357-1363) and the LightCycler 480 SW 1.5 software (Roche Diagnostics, Mannheim) and ECso values were calculated using non-linear regression with GraphPad Prism 6 (GraphPad Software Inc., La Jolla, USA).

[2] = Cell viability assay (AlamarBlue); conditions: human, HepAD38 cells
Procedure: Using the AlamarBlue viability assay cytotoxicity was evaluated in HepAD38 cells in the presence of 0.3 μg/ml tetracycline, which blocks the expression of the HBV genome. Assay condition and plate layout were in analogy to the anti-HBV assay, however other controls were used. On each assay plate six wells containing untreated HepAD38 cells were used as the 100% viability control, and six wells filled with assay medium only were used as 0% viability control. In addition, a geometric concentration series of cycloheximide starting at 60 μM final assay concentration was used as positive control in each experiment. After six days incubation period Alamar Blue Presto cell viability reagent (ThermoFisher, Dreieich) was added in 1/11 dilution to each well of the assay plate. After an incubation for 30 to 45 min at 37° C. the fluorescence signal, which is proportional to the number of living cells, was read using a Tecan Spectrafluor Plus plate reader with an excitation filter 550 nm and emission filter 595 nm, respectively. Data were normalized into percentages of the untreated control (100% viability) and assay medium (0% viability) before CC50 values were calculated using non-linear regression and the GraphPad Prism 6.0 (GraphPad Software, La Jolla, USA). Mean EC50 and CC50 values were used to calculate the selectivity index (SI=CC50/EC50) for each test compound.

Sequence of HBV core protein (C-terminal truncated core protein containing 149 amino acids of the N-terminal assembly domain) (P03146 whole entry, the tested form may be a part): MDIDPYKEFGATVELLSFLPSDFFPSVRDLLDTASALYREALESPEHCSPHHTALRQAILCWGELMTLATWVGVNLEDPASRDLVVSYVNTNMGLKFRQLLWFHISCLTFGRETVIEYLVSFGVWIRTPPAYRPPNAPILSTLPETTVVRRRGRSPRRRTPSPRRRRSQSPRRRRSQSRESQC

Structure (SMILES) | IC50 [1] [µM] | EC50 (HBV) [µM] | CC50 at 6 days [2] [µM]
CN(C(=O)c1cnn2c1CN(C(=O)c1cc3ccccc3[nH]1)CC2)C1(c2cocn2)CC1 [Example 57, 5-(1H-indole-2-carbonyl)-N-methyl-N-[1-(1,3-oxazol-4-yl)cyclopropyl]-4H,5H,6H,7H-pyrazolo[1,5-a]pyrazine-3-carboxamide] | < 5 | < 1 | > 10
O=C(c1cc2ccccc2[nH]1)N1CCn2ncc(C(=O)N(CCO)C3(CO)CC3)c2C1 [Example 75, N-(2-hydroxyethyl)-N-[1-(hydroxymethyl)cyclopropyl]-5-(1H-indole-2-carbonyl)-4H,5H,6H,7H-pyrazolo[1,5-a]pyrazine-3-carboxamide] | < 5 | < 1 | > 10
CN1CCN(S(=O)(=O)c2cnn3c2CN(C(=O)c2cc4ccccc4[nH]2)CC3)CC1 [Example 36, 2-{3-[(4-methylpiperazin-1-yl)sulfonyl]-4H,5H,6H,7H-pyrazolo[1,5-a]pyrazine-5-carbonyl}-1H-indole] | 5 to 10 | < 1 | > 10
COCC1(N(C)S(=O)(=O)c2cnn3c2CN(C(=O)c2cc4ccccc4[nH]2)CC3)CC1 [Example 32, 5-(1H-indole-2-carbonyl)-N-[1-(methoxymethyl)cyclopropyl]-N-methyl-4H,5H,6H,7H-pyrazolo[1,5-a]pyrazine-3-sulfonamide] | < 5 | < 1 | > 10
CC(NS(=O)(=O)c1cnn2c1CN(C(=O)c1cc3ccccc3[nH]1)CC2)C(F)(F)F (stereo not drawn) [Example 28, 5-(1H-indole-2-carbonyl)-N-(1,1,1-trifluoropropan-2-yl)-4H,5H,6H,7H-pyrazolo[1,5-a]pyrazine-3-sulfonamide] | < 5 | 1 to 10 | > 10
CNC(=O)c1cnn2c1CN(C(=O)c1cc3ccccc3[nH]1)CC2 [Example 100, 5-(1H-indole-2-carbonyl)-N-methyl-4H,5H,6H,7H-pyrazolo[1,5-a]pyrazine-3-carboxamide] | 5 to 10 | < 100 | > 10
O=C(NC1(CCOC(F)F)CCCC1)c1cnn2c1CN(C(=O)c1cc3ccccc3[nH]1)CC2 [Example 124, N-{1-[2-(difluoromethoxy)ethyl]cyclopentyl}-5-(1H-indole-2-carbonyl)-4H,5H,6H,7H-pyrazolo[1,5-a]pyrazine-3-carboxamide] | < 5 | < 1 | > 10
O=C(c1cc2ccccc2[nH]1)N1CCn2ncc(C(=O)N3CC4C(C3)C4(F)F)c2C1 (stereo not drawn) [Example 42, 2-(3-{6,6-difluoro-3-azabicyclo[3.1.0]hexane-3-carbonyl}-4H,5H,6H,7H-pyrazolo[1,5-a]pyrazine-5-carbonyl)-1H-indole] | < 5 | < 1 | > 10
CC1Cn2ncc(C(=O)N[C@H](C)C(F)(F)F)c2CN1C(=O)c1cc2c(Cl)cccc2[nH]1 (stereo partly drawn) [Example 145, 5-(4-chloro-1H-indole-2-carbonyl)-6-methyl-N-[(2R)-1,1,1-trifluoropropan-2-yl]-4H,5H,6H,7H-pyrazolo[1,5-a]pyrazine-3-carboxamide] | < 5 | < 1 | > 10
O=C(c1cc2ccccc2[nH]1)N1CCn2ncc(S(=O)(=O)N3CCOCC3)c2C1 [Example 38, 2-[3-(morpholine-4-sulfonyl)-4H,5H,6H,7H-pyrazolo[1,5-a]pyrazine-5-carbonyl]-1H-indole] | < 5 | < 1 | > 10
CN(C(=O)c1cnn2c1CN(C(=O)c1cc3ccccc3[nH]1)CC2)C1COC1 [Example 135, 5-(1H-indole-2-carbonyl)-N-methyl-N-(oxetan-3-yl)-4H,5H,6H,7H-pyrazolo[1,5-a]pyrazine-3-carboxamide] | < 5 | < 1 | > 10
Cc1cc(F)cc2[nH]c(C(=O)N3Cc4c(C(=O)N[C@H](C)C(F)(F)F)cnn4CC3C)cc12 (stereo partly drawn) [Example 146, 5-(6-fluoro-4-methyl-1H-indole-2-carbonyl)-6-methyl-N-[(2R)-1,1,1-trifluoropropan-2-yl]-4H,5H,6H,7H-pyrazolo[1,5-a]pyrazine-3-carboxamide] | < 5 | < 1 | > 10
O=C(c1cc2ccccc2[nH]1)N1CCn2ncc(S(=O)(=O)N3CCC(F)(F)CC3)c2C1 [Example 34, 2-{3-[(4,4-difluoropiperidin-1-yl)sulfonyl]-4H,5H,6H,7H-pyrazolo[1,5-a]pyrazine-5-carbonyl}-1H-indole] | – | < 1 | > 10
O=C(c1cc2c(Cl)cc(F)cc2[nH]1)N1CCn2ncc(C(=O)N3CCC(F)(F)C3)c2C1 [Example 140, 4-chloro-2-[3-(3,3-difluoropyrrolidine-1-carbonyl)-4H,5H,6H,7H-pyrazolo[1,5-a]pyrazine-5-carbonyl]-6-fluoro-1H-indole] | – | < 1 | > 10
O=C(c1cc2c(Cl)cccc2[nH]1)N1CCn2ncc(C(=O)N3CCC(F)(F)C3)c2C1 [Example 99, 4-chloro-2-[3-(3,3-difluoropyrrolidine-1-carbonyl)-4H,5H,6H,7H-pyrazolo[1,5-a]pyrazine-5-carbonyl]-1H-indole] | – | < 1 | > 10
